melting point: 112 to 113 °C
Compound: CN(C)CC(c1ccc(OCOC(=O)C(C)(C)C)cc1)C1(O)CCCCC1.O=C(O)/C=C\C(=O)O (stereo not shown) [Example 5, {4-[2-(Dimethylamino)-1-(1-hydroxycyclohexyl)ethyl]phenoxy}methyl Pivalate Maleate Salt]

Reference: US6503942B2, “Ethers of O-Desmethyl venlafaxine” (Wyeth, priority 1999, dated 2003)
